Broadly, the EC50 is the concentration that produces a half-maximal response. For orientation: IC50 means the concentration that inhibits the measured activity by half. What is called AC50 is the concentration giving half of the maximal activity seen.

The nature of data set [1]: cells. The class given is functional, cell-based.
Data set [2] can be described thus: cells. The class given is functional, cell-based. The source holds these as a separate data set.
Data set [3] concerns the target T1, Trace amine-associated receptor 1 (Homo sapiens, UniProt Q96RJ0).
T1 sequence (Q96RJ0 whole entry): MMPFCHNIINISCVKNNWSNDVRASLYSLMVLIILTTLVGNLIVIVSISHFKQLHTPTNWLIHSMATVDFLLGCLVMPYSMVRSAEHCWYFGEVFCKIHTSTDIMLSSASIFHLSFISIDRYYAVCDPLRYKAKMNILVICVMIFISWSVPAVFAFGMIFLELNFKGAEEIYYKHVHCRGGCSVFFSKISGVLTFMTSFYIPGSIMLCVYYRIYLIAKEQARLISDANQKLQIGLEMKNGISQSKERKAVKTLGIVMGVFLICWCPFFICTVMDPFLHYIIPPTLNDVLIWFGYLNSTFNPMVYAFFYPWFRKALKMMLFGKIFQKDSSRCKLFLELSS
Nature of the data set: Fluorescence-based cell-based high throughput dose response assay to identify agonists of the human trace amine associated receptor 1 (TAAR1). The class given is functional.

Data set [4] has as its target T1, Trace amine-associated receptor 1. The experiment in a line: Counterscreen for agonists of the human trace amine associated receptor 1 (hTAAR1): Fluorescence-based cell-based high throughput dose response assay to identify hTAAR1 agonist that also desensitize TAAR1 receptor response. The class given is functional.
A short description of data set [5]: cells. Type of data set: functional, cell-based. This is another data set of the same source.
Data set [6] in a line: cells. The class given is functional, cell-based. The source holds these as a separate data set.
Data set [7] deals with Peroxisome proliferator-activated receptor gamma/Nuclear receptor coactivator 3 (Homo sapiens, UniProt P37231). Nature of the data set: TR-FRET dose response biochemical High Throughput Screening assay for agonists of the steroid receptor coactivator 3 (SRC-3) recruitment by the peroxisome proliferator-activated receptor gamma (PPAR gamma): non-selective agonists. [Related pubchem assays: 1301 (Confirmation screen.), 1048 (Primary screen.)]. Type of data set: functional. A general note: In TR-FRET formats the signal depends on donor and acceptor labels being close together.

Data set [8] has as its target Peroxisome proliferator-activated receptor gamma/Nuclear receptor coactivator 2 (Homo sapiens, UniProt P37231). Nature of the data set: TR-FRET dose response biochemical High Throughput Screening assay for agonists of the steroid receptor coactivator 2 (SRC-2) recruitment by the peroxisome proliferator-activated receptor gamma (PPAR gamma): non-selective agonists. [Related pubchem assays: 1297, 1032 ]. The class given is functional.

The nature of data set [9]: cytotoxicity in HEK-293T cells, dose response, cytotoxicity control for BCR NF-kB inhibitor project, luminescence, B-cell screen hits (AID 489021).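 Further: HEK-293T cells carrying an NF-kB luciferase reporter; cells exposed to compound for about 14 hours before viability readout.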 Type of data set: functional, cell-based.
Data set [10] deals with Peroxisome proliferator-activated receptor gamma/Nuclear receptor coactivator 1 (Homo sapiens, UniProt P37231). The experiment in a line: TR-FRET dose response biochemical High Throughput Screening assay for agonists of the steroid receptor coactivator 1 (SRC-1) recruitment by the peroxisome proliferator-activated receptor gamma (PPAR gamma): non-selective agonists. [Related pubchem assays (depositor defined):AID1300, AID1808, AID504735, AID631]. The class given is protein assay.

Data set [11] has as its target Large T antigen (Simian virus 40, UniProt P03070). The class given is functional, Betapolyomavirus macacae.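 Further: Confirmatory-stage PubChem screen for compounds that inhibit SV40 T antigen.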
In data set [12] the target is T2, Hepatocyte nuclear factor 4-alpha (Homo sapiens, UniProt P41235).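 Further: biochemical luminescence-based dose-response counterscreen measuring inhibition of HNF4 dimerization, run alongside a screen for blockers of ABHD5–perilipin-5 interaction; split luciferase complementation of HNF4 fusion proteins in cell lysate measuring dimerization.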
T2 sequence (P41235 whole entry): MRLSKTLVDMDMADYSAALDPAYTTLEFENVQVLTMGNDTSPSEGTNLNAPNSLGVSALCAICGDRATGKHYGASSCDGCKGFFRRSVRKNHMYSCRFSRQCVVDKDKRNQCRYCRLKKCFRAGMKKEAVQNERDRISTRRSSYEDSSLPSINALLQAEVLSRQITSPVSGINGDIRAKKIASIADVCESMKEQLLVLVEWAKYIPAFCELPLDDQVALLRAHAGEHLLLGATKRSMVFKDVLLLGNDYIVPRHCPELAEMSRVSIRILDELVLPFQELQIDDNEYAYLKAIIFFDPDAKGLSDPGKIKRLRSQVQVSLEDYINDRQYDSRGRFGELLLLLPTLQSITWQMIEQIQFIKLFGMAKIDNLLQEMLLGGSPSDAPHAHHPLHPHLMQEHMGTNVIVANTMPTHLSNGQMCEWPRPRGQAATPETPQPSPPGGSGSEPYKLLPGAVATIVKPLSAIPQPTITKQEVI
The class given is functional, cell-based.

Data set [13] addresses T3, Rac GTPase-activating protein 1 (Homo sapiens, UniProt Q9H0H5).
T3 sequence (Q9H0H5 whole entry): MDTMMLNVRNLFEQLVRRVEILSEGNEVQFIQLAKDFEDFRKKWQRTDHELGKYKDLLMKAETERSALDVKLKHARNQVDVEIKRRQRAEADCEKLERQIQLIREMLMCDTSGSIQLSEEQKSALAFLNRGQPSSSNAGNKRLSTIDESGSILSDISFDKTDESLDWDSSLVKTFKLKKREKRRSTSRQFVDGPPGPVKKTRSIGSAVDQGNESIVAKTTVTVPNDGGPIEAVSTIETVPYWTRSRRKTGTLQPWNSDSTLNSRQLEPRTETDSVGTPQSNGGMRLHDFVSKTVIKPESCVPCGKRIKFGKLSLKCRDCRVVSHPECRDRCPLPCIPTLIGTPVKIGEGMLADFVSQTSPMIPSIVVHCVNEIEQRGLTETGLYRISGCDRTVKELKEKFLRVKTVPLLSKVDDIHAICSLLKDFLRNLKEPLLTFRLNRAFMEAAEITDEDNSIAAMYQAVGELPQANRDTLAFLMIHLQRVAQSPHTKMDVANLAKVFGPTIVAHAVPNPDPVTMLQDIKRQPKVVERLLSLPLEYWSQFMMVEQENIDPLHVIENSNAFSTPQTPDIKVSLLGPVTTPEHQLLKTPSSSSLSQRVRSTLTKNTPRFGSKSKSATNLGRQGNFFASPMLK
Nature of the data set: MgcRacGAP GTPase-activating activity inhibitors, confirmation, biochemical, ADP Hunter fluorescence, primary and confirmatory (AID 624330). The class given is functional.

For data set [14], the target named is Protein-tyrosine kinase 2-beta (Homo sapiens, UniProt Q14289).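 Further: potency of inhibitors of PYK2 kinase phosphorylation of poly-GT substrate.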
Protein-tyrosine kinase 2-beta, sequence (Q14289 whole entry): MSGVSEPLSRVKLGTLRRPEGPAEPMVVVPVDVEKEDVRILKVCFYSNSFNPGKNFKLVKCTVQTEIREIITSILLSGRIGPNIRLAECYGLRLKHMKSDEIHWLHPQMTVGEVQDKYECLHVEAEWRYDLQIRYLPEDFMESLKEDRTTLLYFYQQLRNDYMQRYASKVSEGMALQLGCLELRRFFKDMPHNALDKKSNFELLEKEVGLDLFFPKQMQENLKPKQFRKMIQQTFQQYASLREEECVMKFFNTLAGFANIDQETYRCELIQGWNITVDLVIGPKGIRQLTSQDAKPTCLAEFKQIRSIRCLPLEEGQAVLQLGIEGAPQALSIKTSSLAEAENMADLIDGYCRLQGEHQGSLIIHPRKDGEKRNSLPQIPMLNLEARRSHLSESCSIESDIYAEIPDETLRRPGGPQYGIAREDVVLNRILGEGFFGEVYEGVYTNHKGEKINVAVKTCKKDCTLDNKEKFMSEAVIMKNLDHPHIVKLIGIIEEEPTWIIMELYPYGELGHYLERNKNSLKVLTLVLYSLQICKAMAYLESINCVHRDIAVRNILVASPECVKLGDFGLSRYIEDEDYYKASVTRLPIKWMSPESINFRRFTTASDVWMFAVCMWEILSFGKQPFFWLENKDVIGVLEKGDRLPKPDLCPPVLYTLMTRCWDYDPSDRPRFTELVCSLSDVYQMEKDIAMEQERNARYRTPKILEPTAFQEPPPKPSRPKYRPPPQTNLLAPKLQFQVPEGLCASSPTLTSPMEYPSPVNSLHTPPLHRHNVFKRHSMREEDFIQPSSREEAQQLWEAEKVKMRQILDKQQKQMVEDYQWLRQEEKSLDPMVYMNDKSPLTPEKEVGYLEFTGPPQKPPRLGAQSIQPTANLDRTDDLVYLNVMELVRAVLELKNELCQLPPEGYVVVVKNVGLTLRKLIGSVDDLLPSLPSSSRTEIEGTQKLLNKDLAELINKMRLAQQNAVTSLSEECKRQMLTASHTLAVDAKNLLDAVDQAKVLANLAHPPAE
Data set [15] has as its target Voltage-dependent T-type calcium channel subunit alpha-1H (Homo sapiens, UniProt O95180). The class given is functional.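 Further: channel activity triggered by adding a high calcium stimulation buffer.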
A short description of data set [16]: HEp-2 cell cytotoxicity, dose response, cytotoxicity control for RSV inhibitor project, HTS (AID 2410). The class given is functional. The settings on record: human respiratory syncytial virus.
Data set [17] deals with T4, Coagulation factor XII (Homo sapiens, UniProt P00748).
T4 sequence (P00748 whole entry): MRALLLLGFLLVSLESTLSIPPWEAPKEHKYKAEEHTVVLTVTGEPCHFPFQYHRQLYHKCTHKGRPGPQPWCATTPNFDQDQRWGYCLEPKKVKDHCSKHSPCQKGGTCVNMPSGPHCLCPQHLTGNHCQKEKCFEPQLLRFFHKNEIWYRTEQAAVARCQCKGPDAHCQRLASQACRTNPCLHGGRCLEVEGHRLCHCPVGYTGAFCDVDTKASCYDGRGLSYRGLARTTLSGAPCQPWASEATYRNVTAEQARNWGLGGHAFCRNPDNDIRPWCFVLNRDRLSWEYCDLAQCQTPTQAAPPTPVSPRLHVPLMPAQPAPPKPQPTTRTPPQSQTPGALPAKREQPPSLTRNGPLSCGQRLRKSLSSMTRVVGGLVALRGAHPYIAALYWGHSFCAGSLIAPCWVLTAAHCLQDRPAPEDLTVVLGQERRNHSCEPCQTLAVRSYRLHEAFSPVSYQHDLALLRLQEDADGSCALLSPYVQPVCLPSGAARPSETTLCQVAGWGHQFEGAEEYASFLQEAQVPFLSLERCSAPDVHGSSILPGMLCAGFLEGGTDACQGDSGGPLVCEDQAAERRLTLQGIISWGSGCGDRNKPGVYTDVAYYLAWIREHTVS
The class given is functional.

Data set [18] has as its target Estrogen receptor beta (Homo sapiens, UniProt Q92731).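 Further: recombinant ER-beta bound to coactivator SRC1 peptide in presence of estradiol agonist; inhibitors block coactivator peptide binding and lower the FRET signal.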
Data set [19] can be described thus: HeLa 2N DNA content increase, dose response, cell-based, IC50 (AID 1117349). The class given is functional.
Data set [20] in a line: HeLa 4N DNA content increase, dose response, cell-based, IC50 (AID 1117351). Type of data set: functional.
Data set [21] has as its system INS1. Nature of the data set: beta cell apoptosis inhibitors, cytokine rescue, dose response, luminescence, retest (AID 449756).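 Further: cell death triggered by IL-1 beta plus TNF-alpha plus IFN-gamma mixture; protective hits raise ATP signal compared with cytokine alone wells.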 Type of data set: functional, cell-based. To be noted: Rattus norvegicus.
The test system of data set [22] is Streptococcus. The experiment in a line: Group A Streptococcus viability loss, dose response, counter-screen for streptokinase expression inhibitor project, luminescence, BacTiterGlo (AID 1915).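 Further: potency for reduction of bacterial viability or growth.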 Type of data set: functional, organism-based. (A counterscreen serves to expose hits that act by an unwanted route or on another target.)
Data set [23] deals with Streptococcus sp. 'group A'. Nature of the data set: growth inhibition of control SK(-) GAS strain, dose response, counter-screen for streptokinase expression inhibitor project, luminescence, kanamycin, BacTiterGlo, confirmation (AID 1900). The class given is functional, organism-based.
A short description of data set [24]: microbe, parasite or virus in culture. The class given is functional. The settings on record: Mycobacterium tuberculosis.
Data set [25] concerns the target Cytochrome P450 2C19 (Homo sapiens, UniProt P33261). Nature of the data set: Cytochrome panel assay with activity outcomes. Panel member name: p450-cyp2c19 Compounds with AC50 equal or less than 10 uM are considered active. Type of data set: functional.

Each structure is given as a SMILES string. The source made the active and inactive calls.

Voltage-dependent T-type calcium channel subunit alpha-1H, sequence (O95180 whole entry): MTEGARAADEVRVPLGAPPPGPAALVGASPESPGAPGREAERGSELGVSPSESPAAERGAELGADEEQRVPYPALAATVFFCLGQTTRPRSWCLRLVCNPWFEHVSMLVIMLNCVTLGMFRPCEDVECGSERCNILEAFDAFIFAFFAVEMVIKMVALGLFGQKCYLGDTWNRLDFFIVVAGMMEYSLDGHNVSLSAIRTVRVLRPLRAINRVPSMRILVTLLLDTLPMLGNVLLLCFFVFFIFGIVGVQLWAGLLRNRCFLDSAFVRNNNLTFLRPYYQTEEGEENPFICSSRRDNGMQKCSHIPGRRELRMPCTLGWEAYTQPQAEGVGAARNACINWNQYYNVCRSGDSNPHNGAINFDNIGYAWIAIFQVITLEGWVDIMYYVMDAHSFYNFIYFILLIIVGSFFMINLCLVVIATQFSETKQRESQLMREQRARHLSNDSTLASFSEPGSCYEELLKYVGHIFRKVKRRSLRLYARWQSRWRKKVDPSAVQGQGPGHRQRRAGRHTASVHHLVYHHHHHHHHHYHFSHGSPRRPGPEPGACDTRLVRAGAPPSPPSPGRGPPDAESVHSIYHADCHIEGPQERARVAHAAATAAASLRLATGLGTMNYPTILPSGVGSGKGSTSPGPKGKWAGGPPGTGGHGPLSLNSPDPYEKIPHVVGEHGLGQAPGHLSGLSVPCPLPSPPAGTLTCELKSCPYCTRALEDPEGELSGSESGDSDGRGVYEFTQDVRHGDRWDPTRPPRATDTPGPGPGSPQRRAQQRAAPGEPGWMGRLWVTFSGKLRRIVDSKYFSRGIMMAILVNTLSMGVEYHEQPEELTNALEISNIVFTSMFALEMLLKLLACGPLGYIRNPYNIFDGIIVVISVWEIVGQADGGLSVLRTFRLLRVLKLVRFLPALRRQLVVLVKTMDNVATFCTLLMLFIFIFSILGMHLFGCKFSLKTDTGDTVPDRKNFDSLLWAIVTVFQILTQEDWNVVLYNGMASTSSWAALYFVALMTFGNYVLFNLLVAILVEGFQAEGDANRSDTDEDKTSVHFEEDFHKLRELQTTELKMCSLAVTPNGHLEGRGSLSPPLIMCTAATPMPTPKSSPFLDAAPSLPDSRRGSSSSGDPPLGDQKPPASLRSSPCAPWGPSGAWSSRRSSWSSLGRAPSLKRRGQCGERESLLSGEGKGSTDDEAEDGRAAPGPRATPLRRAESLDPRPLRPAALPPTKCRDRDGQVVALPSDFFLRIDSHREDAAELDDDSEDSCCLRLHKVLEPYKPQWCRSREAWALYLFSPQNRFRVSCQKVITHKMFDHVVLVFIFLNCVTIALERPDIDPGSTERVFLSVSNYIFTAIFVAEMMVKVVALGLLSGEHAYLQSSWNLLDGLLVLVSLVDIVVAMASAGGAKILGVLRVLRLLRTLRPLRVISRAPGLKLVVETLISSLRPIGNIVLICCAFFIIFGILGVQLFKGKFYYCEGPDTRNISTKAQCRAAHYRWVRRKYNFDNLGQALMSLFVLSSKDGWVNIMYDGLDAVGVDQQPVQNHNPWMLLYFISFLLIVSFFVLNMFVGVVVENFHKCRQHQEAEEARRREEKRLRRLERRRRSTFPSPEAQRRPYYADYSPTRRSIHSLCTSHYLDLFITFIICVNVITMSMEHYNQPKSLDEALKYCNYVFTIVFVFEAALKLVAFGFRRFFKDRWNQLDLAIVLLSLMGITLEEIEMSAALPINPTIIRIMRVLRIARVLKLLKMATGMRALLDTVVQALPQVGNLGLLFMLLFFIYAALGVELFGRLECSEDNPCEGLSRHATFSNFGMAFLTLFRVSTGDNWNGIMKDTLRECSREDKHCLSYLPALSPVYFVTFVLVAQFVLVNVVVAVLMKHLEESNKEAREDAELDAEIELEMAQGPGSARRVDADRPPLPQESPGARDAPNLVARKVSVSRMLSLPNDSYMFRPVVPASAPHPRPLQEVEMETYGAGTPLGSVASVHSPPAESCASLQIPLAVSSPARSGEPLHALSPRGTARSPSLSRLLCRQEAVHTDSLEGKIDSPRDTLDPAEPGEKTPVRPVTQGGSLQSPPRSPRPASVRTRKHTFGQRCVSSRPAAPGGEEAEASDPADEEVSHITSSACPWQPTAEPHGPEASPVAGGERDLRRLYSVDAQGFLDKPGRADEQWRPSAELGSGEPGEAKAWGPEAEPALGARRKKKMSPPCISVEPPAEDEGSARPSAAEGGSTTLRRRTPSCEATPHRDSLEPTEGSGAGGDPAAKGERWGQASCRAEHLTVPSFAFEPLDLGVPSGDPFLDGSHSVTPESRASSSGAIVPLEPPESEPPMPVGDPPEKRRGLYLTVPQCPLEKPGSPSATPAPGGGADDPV
Estrogen receptor beta, sequence (Q92731 whole entry): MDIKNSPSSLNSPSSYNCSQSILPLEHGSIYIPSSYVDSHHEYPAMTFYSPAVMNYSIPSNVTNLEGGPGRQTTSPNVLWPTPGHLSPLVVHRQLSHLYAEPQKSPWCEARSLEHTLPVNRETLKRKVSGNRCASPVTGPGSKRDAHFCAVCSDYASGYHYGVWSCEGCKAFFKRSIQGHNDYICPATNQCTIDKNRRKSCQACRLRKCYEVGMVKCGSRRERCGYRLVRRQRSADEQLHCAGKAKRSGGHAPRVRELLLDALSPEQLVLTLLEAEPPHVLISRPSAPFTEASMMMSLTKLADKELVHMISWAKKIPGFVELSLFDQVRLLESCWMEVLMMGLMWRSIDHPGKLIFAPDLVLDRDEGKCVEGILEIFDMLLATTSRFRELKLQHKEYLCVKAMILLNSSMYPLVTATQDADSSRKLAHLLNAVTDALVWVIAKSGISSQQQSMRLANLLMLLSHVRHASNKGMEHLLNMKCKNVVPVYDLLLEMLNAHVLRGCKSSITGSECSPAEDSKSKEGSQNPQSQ
Cytochrome P450 2C19, sequence (P33261 whole entry): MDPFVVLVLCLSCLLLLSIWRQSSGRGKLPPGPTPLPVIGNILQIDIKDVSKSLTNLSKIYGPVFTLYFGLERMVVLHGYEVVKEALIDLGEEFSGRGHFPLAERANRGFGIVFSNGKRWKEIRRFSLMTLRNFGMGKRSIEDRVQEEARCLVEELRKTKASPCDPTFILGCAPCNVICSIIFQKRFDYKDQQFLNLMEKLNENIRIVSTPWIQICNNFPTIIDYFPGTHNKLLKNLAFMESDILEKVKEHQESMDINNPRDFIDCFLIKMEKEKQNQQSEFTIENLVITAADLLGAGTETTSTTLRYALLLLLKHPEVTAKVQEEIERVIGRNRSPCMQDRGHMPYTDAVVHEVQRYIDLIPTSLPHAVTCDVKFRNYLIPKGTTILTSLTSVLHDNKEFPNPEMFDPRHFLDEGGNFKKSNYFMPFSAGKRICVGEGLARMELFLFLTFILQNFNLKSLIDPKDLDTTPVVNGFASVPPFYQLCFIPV
Large T antigen, sequence (P03070 whole entry, the tested form may be a part): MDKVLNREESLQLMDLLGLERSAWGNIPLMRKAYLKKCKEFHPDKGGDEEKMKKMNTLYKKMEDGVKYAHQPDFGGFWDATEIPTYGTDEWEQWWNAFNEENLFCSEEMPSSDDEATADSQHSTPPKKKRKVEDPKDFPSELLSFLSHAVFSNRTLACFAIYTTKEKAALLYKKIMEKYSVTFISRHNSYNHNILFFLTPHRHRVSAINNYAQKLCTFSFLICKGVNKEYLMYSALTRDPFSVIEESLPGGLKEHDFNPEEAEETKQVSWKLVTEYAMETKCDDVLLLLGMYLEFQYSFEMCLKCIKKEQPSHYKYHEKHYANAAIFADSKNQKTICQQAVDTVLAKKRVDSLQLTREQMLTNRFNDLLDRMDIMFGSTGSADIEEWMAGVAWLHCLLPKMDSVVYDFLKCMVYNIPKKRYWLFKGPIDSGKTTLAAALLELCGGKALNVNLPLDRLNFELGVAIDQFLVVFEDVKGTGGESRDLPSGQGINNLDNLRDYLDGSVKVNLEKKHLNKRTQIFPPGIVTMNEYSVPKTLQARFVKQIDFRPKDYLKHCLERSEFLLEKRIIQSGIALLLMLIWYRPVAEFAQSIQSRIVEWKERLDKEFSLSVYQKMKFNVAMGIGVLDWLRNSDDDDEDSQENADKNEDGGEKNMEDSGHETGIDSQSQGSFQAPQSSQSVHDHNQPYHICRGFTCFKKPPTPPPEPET

On to `CC1SC(NC(=O)c2ccncc2)=NC1=O` (configuration not stated), for which the EC50 in data set [1] and in [2] was > 350 µM (not active) throughout.
For the molecule `O=C(O)c1ccccc1C(=O)NCC(O)c1ccccc1` (configuration not stated), the EC50 was 5.05 µM (active) in data set [3] and > 29.9 µM (inactive) in data set [5]. Moreover, the IC50 in [4] and in [6] was > 29.9 µM (inactive) in each case.
As to `CCn1c(=O)cc(SCC(=O)N2CCC(C)CC2)c2ccccc21`, the values for the EC50 in data set [7], in [8] and in data set [10] were > 79.4 µM (not active), > 79.4 µM (not active) and > 79.4 µM (inactive), respectively. Moreover, the IC50 in data set [9] was > 80 µM (inactive).
On to `CCc1ccc2nc(Nc3nc(O)cc(COC)n3)nc(C)c2c1`, for which the IC50 in data set [9] is > 80 µM (inactive).
On to `O=S(=O)(NC1=NCCCCC1)c1ccc2sc(NS(=O)(=O)c3ccc4ccccc4c3)nc2c1`, for which the IC50 in [11] was 39.4 µM (active); in [12] it was 9.21 µM (active); in data set [13], 156 µM (active).
Regarding `CN1C(=O)c2cccc3c(S(=O)(=O)NCc4ccco4)ccc1c23`, the IC50 in data set [14] was > 69.5 µM (not active).
In the case of `CC(C)C(=O)Nc1ccc(NC(=O)c2ccc3c(c2)OCO3)cc1`, the IC50 in [9] was > 80 µM (inactive).
Take `Cc1cccc(C)c1NC(=O)C(c1ccc(Cl)cc1Cl)N1CCCCC1` (configuration not stated): the 50% effective concentration (EC50) in [15] was 2.39 µM (active).
On to `O=C(Nc1ccc(F)cc1)Nc1ccc(Oc2ncnc3cc(Cl)ccc23)nc1`, for which the EC50 in data set [3] and in data set [5] was > 29.9 µM (inactive) each time. The IC50 was 0.373 µM (active) in data set [4] and > 29.9 µM (inactive) in data set [6].
As for `COc1ccc(/C=C/C(=O)c2cc(F)ccc2OC(=O)c2ccc(OC)c(OC)c2)cc1OC`, the IC50 in data set [12] was 5.27 µM (active).
In the case of `CC(C)Oc1cc(NC(=O)C[S+]([O-])CC(=O)Nc2cccc(C(F)(F)F)c2)c(Cl)cc1Cl` (configuration not stated), the EC50 in data set [15] is 3.23 µM (active).
As for `COc1ccc(N(C)C(=O)c2ccc3nc(-c4ccccc4)c(-c4ccccc4)nc3c2)cc1`, the CC50 in [16] is 12.8 µM (active). Also, in data set [15], the EC50 is 3.17 µM (active).
Take `Cc1cc(C)cc(OCC(=O)Nc2ccc(N3CCCC3)cc2)c1`: the IC50 in [17] was > 50 µM (inactive); in data set [18] it was 1.56 µM (active); in data set [14], 7.74 µM (active).
Consider `CCCCc1c(-c2ccccc2OC)ncn1CCc1cccc(F)c1`, for which the EC50 in data set [3] is 2.73 µM (active); in data set [5], > 29.9 µM (inactive). Moreover, the IC50 was 4.33 µM (active) in [4] and 15.3 µM (inactive) in [6].
As for `CC[C@@H]([C@H](C)O)n1ncn(-c2ccc(N3CCN(c4ccc(OC[C@@H]5CO[C@@](Cn6cncn6)(c6ccc(F)cc6F)C5)cc4)CC3)cc2)c1=O`, the IC50 in data set [19] and in data set [20] was > 10 µM (inactive) in each case.
Consider `CCCCn1c(/C=N/Nc2nc3ccccc3[nH]2)nc2ccccc21`, for which the AC50 in data set [21] is 3.54 µM (active). For the same molecule, the EC50 in [22] is 3.74 µM (active); in data set [1] it was > 350 µM (not active); in data set [23] it was 1.66 µM (active); in data set [2], 43.7 µM (active).
Take `C[C@]12CC[C@@H]3c4ccc(O)cc4CC[C@H]3[C@@H]1CC[C@@H]2OC(=O)CCC1CCCC1` [ESTRADIOL CYPIONATE]: in data set [24], the CC50 is 30.6 µM (active). For the same molecule, the IC50 in data set [19] and in [20] was > 10 µM (inactive) each time.
`NCCc1ccc(O)cc1` [TYRAMINE]: the EC50 in data set [3] is 0.178 µM (active); in [5], > 29.9 µM (inactive). Besides, the IC50 was 0.882 µM (active) in data set [4] and > 29.9 µM (inactive) in [6]. The AC50 entry in [25] is given as “inconclusive”.
